{"source": "paper PMC3724849", "about": "(PLoS ONE, 2013)", "key": {"C57BL/6 mice": {"test_system": "C57BL/6 mice", "test": "SmartCube high-content behavioral phenotyping", "type": "in vivo, mouse", "conditions": "for discrimination index: p<0.001", "method": "SmartCube experiments were conducted at Psychogenics, Inc (Tarrytown, NY). […] The SmartCube® system can measure numerous spontaneous behaviors and responses to challenges in the same testing environment. The hardware includes force sensors and a number of aversive stimuli used to elicit behavior. Three high-resolution video cameras provide constant 3D view of the mouse in the SmartCube® apparatus throughout the testing period. Digital videos of the subjects were processed with computer vision algorithms to extract over 2,000 independent measures including frequency and duration of behavioral states such as grooming, rearing, etc., and many other features obtained during the test session. […] The database comprises 14 classes of drugs with some of the major classes, such as the antidepressant class, comprising several subclasses with representatives of most of the drugs in the market."}, "[1]": {"test": "Pharmacokinetic study after single i.p. injection"}, "[2]": {"test_system": "CA1 pyramidal neurons of organotypic hippocampal brain slices", "test": "Patch clamp of synaptic transmission in organotypic hippocampal slices", "type": "cell-based, rat"}, "[3]": {"test": "Protein binding in plasma and brain", "type": "in vitro ADME"}, "Tg2576 mice [4]": {"test_system": "Tg2576 mice", "test": "Open field test in Tg2576 mice", "type": "in vivo, mouse", "conditions": "dosing day 32, 30 minutes, mean ±SEM"}, "[5]": {"test_system": "CA1 neurons of organotypic hippocampal brain slices", "test": "Current-clamp intrinsic excitability in organotypic hippocampal slices", "type": "cell-based, rat", "conditions": "SAHA vs vehicle treated slices; p>0.05", "method": "(§1) Interface cultures of hippocampal slices were made from 7–8 day old Sprague Dawley rats as previously described. Briefly, hippocampi were dissected in minimum essential medium (MEM; Invitrogen, Eugene, OR) with 15 mm HEPES and 10 mm Tris buffer (Invitrogen). Four-hundred micrometer slices were cultured on Millicell CM culture plate inserts (Millipore, Temecula, CA). The culture medium consisted of 50% MEM, 25% HBSS, and 25% horse serum, with 12.5 mM HEPES buffer and penicillin (100 U/ml)/streptomycin (100 µg/ml) (all from Invitrogen). Cultures were maintained in 5% CO2, at 37°C. Slices were maintained in vitro for one week prior to transfection.\nPatch clamp recordings were made in oxygenated Artificial Cerebrospinal Fluid (ACSF) containing (in mM) 127 NaCl, 2.5 KCl, 1.3 MgSO4, 2.5 CaCl2, 1.25 Na2HPO4, 25 NaHCO3, 25 glucose. For voltage-clamp recordings patch pipette internal solution consisted of 120 Cs-methanesulfonate, 20 CsCl, 0.5 EGTA, 10 HEPES, 2.5 MgCl2, 4 Na2ATP, 0.3 NA3GTP, 10 Phosphocreatine, and 5 mM QX-314 Br. Miniature excitatory postsynaptic currents (mEPSCs) were recorded in the presence of 100 µM Picrotoxin (PTX) and 1 µM tetrodotoxin (TTX) at a holding potential of −70 mV. Miniature inhibitory postsynaptic currents (mIPSCs) were recorded in the presence of 10 µM 2,3-Dioxo-6-nitro-1,2,3,4-tetrahydrobenzo[f]quinoxaline-7-sulfonamide (NBQX), 50 µM D-(−)-2-Amino-5-phosphonopentanoic acid (D-AP5) and 1 µM TTX at a holding potential of 0 mV. Significance of differences between mean frequencies or amplitudes of mEPSCs or mIPSCs were assessed using a student’s t-test. […]. For experiments measuring open NMDAR block synaptic inputs were stimulated locally using a bipolar stimulation electrode and NMDAR EPSCs were isolated using NBQX and PTX and measured at −70 mV with external MgCl2 lowered to 0.5 mM. […] For synaptic plasticity experiments synaptic inputs were stimulated locally using a bipolar stimulation electrode and EPSCs were measured at −70 mV. […] Significance of differences in normalized EPSC amplitudes between treatment groups following plasticity induction were assessed using a student’s t-test. […] Action potential threshold was measured during the smallest depolarizing current injection steps that triggered spiking. Input resistance was calculated from the steady-state response to the smallest hyperpolarizing current injection steps to avoid contamination from hyperpolarization-induced inward currents (h-current). The h-current “sag” was measured based on the difference between the maximal and steady-state voltage responses to strong hyperpolarizing current injection steps. Significance of differences in all measures between treatment groups were assessed using a student’s t-test."}, "Tg2576 mice [6]": {"test_system": "Tg2576 mice", "test": "Tg2576 fear conditioning", "type": "in vivo, mouse", "conditions": "25 mg/kg or 50 mg/kg SAHA i.p. daily vs vehicle; p>0.05"}, "[7]": {"test_system": "excitatory synapses in CA1 of organotypic hippocampal brain slices", "test": "Synaptic plasticity (LTP, LTD) in organotypic hippocampal slices", "type": "cell-based, rat", "conditions": "p<0.05", "method": "as §1\nPatch clamp recordings were made in oxygenated Artificial Cerebrospinal Fluid (ACSF) containing (in mM) 127 NaCl, 2.5 KCl, 1.3 MgSO4, 2.5 CaCl2, 1.25 Na2HPO4, 25 NaHCO3, 25 glucose. For voltage-clamp recordings patch pipette internal solution consisted of 120 Cs-methanesulfonate, 20 CsCl, 0.5 EGTA, 10 HEPES, 2.5 MgCl2, 4 Na2ATP, 0.3 NA3GTP, 10 Phosphocreatine, and 5 mM QX-314 Br. Miniature excitatory postsynaptic currents (mEPSCs) were recorded in the presence of 100 µM Picrotoxin (PTX) and 1 µM tetrodotoxin (TTX) at a holding potential of −70 mV. […] Significance of differences between mean frequencies or amplitudes of mEPSCs or mIPSCs were assessed using a student’s t-test. […]"}, "[8]": {"conditions": "single injection, valproate 225 mg/kg"}, "[9]": {"conditions": "0.5 µM SAHA for 3–4 days vs vehicle, p>0.05"}}, "note": "Where “and” joins values, the source holds several entries; their conditions need not be identical. Equal values may be shown once.", "data": [{"smiles": "CCCC(CCC)C(=O)O", "note": "[valproate]", "values": [{"measurement": "drug class activity signature", "setting": "C57BL/6 mice; daily for 14 days, valproate", "value": "predominantly anxiolytic signature"}, {"measurement": "discrimination index", "setting": "C57BL/6 mice; daily for 14 days, valproate", "value": 98, "unit": "%"}, {"measurement": "drug class activity signature", "setting": "C57BL/6 mice; [8]", "value": "strong anxiolytic signature and a mild psychostimulant signature"}, {"measurement": "discrimination index", "setting": "C57BL/6 mice; [8]", "value": 100, "unit": "%"}]}, {"smiles": "O=C(CCCCCCC(=O)Nc1ccccc1)NO", "note": "[SAHA, Suberoylanilide hydroxamic acid]", "values": [{"measurement": "AUClast of free SAHA in the brain", "setting": "[1]; 50 mg/kg i.p.", "value": 0.07, "unit": "µM·h"}, {"measurement": "Cmax of free SAHA in the brain", "setting": "[1]; 50 mg/kg i.p.", "value": "110 ± 20 nM and 110 nM"}, {"measurement": "AUClast of free SAHA in the brain", "setting": "[1]; 150 mg/kg i.p.", "value": 0.36, "unit": "µM·h"}, {"measurement": "Cmax of free SAHA in the brain", "setting": "[1]; 150 mg/kg i.p.", "value": "100 ± 10", "unit": "nM"}, {"measurement": "median amplitude of mEPSCs", "setting": "[2]; 0.5 µM SAHA for 3–4 days vs vehicle, p<0.05", "value": "significantly increased"}, {"measurement": "amplitude of mIPSCs", "setting": "[2]; [9]", "value": "did not significantly alter"}, {"measurement": "frequency of mIPSCs", "setting": "[2]; [9]", "value": "did not significantly alter"}, {"measurement": "mEPSC frequency (median interval between events)", "setting": "[2]; [9]", "value": "no significant change"}, {"measurement": "rate of NMDAR EPSC blockade by MK-801", "setting": "[2]; repetitive stimulation, SAHA vs vehicle treated slices, p>0.05", "value": "not different"}, {"measurement": "bound to protein, brain", "setting": "[3]; brain", "value": 87.0, "unit": "%"}, {"measurement": "bound to protein, plasma", "setting": "[3]; plasma", "value": 40.7, "unit": "%"}, {"measurement": "total distance traveled in the open field test", "setting": "Tg2576 mice [4]; 25 mg/kg i.p. daily", "value": "39.6±6.1", "unit": "m"}, {"measurement": "total distance traveled in the open field test", "setting": "Tg2576 mice [4]; 50 mg/kg i.p. daily", "value": "34.2±5.2", "unit": "m"}, {"measurement": "action potential threshold", "setting": "[5]", "value": "unaltered"}, {"measurement": "input resistance", "setting": "[5]", "value": "unaltered"}, {"measurement": "membrane sag (hyperpolarization-induced inward current)", "setting": "[5]", "value": "unaltered"}, {"measurement": "number of action potentials elicited by 500 ms current injection pulses", "setting": "[5]", "value": "no difference"}, {"measurement": "behavioral activity", "setting": "C57BL/6 mice; daily for 14 days, higher dose of SAHA (150 mg/kg)", "value": "not behaviorally active"}, {"measurement": "drug class activity signature", "setting": "C57BL/6 mice; daily for 14 days, lower dose of SAHA (50 mg/kg)", "value": "not consistent with any known therapeutic signal"}, {"measurement": "behavioral activity", "setting": "C57BL/6 mice; single injection of 50 mg/kg or 150 mg/kg SAHA", "value": "behaviorally inactive"}, {"measurement": "percentage of time freezing in response to the context, altered context, or cue", "setting": "Tg2576 mice [6]", "value": "no effect of treatment"}, {"measurement": "percentage of time spent freezing during conditioning", "setting": "Tg2576 mice [6]", "value": "no effect of treatment"}, {"measurement": "LTP induction", "setting": "[7]; induction protocol subthreshold in vehicle treated slices", "value": "readily evoked LTP"}, {"measurement": "LTD induction", "setting": "[7]; protocol that readily induced LTD in vehicle treated slices", "value": "could not produce LTD"}]}]}
